# According to patent US20250129430A1, “HIGH ATP-AFFINITY PROTEIN AS THERAPEUTIC TARGET FOR INTRACTABLE CANCER MOLECULAR SUBTYPES AND INHIBITOR THEREOF” (VeraVerse Co., Ltd., priority 2021, published 2025):
# Tests used:
# Test in all cases: Cell viability drug screen, 12-point dose-response AUC
# Format in all cases: cell-based, human
# FU97 = system: FU97; design: Average Area Under the Viability Curve (AUC), AUC norm value: scale not given here; conditions: FU97 cells; 72 hours
# Description: (§1) Cells cultured for cell-based drug assay were inoculated into a 96-well white optical plate (Corning) at 5×10^3 cells per well. After 24 hours after inoculation, a 2.5 MJT (primary screen) or a half-log 12-serial diluent (secondary screen) of the pharmacological compound contained in DMSO is added to the cells with a robot using a BioMek FXp liquid processor (Beckman) to add to the cells at 50 mM. The final drug concentration in the 5 ns range and the DMSO specification control (0.5%) were calculated. The cells were then further incubated at 37° C. in a 5% CO2 incubator for 72 hours prior to measuring cell viability using the extra-GLO assay kit (Promega). The luminescent properties were measured after 15 min incubation at room temperature using a plate stacker equipped with a plate stacker. The normalized viability for the DMSO-based control was measured to generate a cell line-specific 12-point dose-response curve for each pharmacological compound, and then the area under the curve (AUC) was calculated using a trapezoidal method.
# SNU620 = SNU620 cells; 72 hours
# Description: (§2) An FDA-approved small-molecule pharmacological compound (#L1300) and an anticancer compound for research (#L2000) were purchased from Selecckchem and a 10 mM solution was prepared in DMSO. A total of 1,345 compounds were tested the cell viability of the seven EMT gastric cancer cell lines.
# as §1, with “method. […] The results of the repeated experiments were averaged to generate AUC values for each cell line for each compound.” for “method.”
# NCC20 = NCC20 cells; 72 hours
# Description: as §2
# as §1, with “method. […] The results of the repeated experiments were averaged to generate AUC values for each cell line for each compound.” for “method.”
# MKN28 = MKN28 cells; 72 hours
# Description: as §2
# as §1, with “method. […] The results of the repeated experiments were averaged to generate AUC values for each cell line for each compound.” for “method.”
# SNU16 = SNU16 cells; 72 hours
# Description: as §2
# as §1, with “method. […] The results of the repeated experiments were averaged to generate AUC values for each cell line for each compound.” for “method.”
# NCC24 = NCC24 cells; 72 hours
# Description: as §2
# as §1, with “method. […] The results of the repeated experiments were averaged to generate AUC values for each cell line for each compound.” for “method.”
# SNU484 = SNU484 cells (SEM subtype); 72 hours
# Description: as §2
# as §1, with “method. […] The results of the repeated experiments were averaged to generate AUC values for each cell line for each compound.” for “method.”
# SNU216 = SNU216 cells (non-SEM subtype); 72 hours
# Description: as §2
# as §1, with “method. […] The results of the repeated experiments were averaged to generate AUC values for each cell line for each compound.” for “method.”
# YCC2 = YCC2 cells; 72 hours
# Description: as §2
# as §1, with “method. […] The results of the repeated experiments were averaged to generate AUC values for each cell line for each compound.” for “method.”
# SNU1967 = SNU1967 cells; 72 hours
# Description: as §2
# as §1, with “method. […] The results of the repeated experiments were averaged to generate AUC values for each cell line for each compound.” for “method.”
# NCC59 = NCC59 cells; 72 hours
# Description: as §2
# as §1, with “method. […] The results of the repeated experiments were averaged to generate AUC values for each cell line for each compound.” for “method.”
# NCC19 = NCC19 cells; 72 hours
# Description: as §2
# as §1, with “method. […] The results of the repeated experiments were averaged to generate AUC values for each cell line for each compound.” for “method.”
# SK4 = SK4 cells (SEM subtype); 72 hours
# Description: as §2
# as §1, with “method. […] The results of the repeated experiments were averaged to generate AUC values for each cell line for each compound.” for “method.”
# SNU1750 = SNU1750 cells (SEM subtype); 72 hours
# Description: as §2
# as §1, with “method. […] The results of the repeated experiments were averaged to generate AUC values for each cell line for each compound.” for “method.”
# SNU1 = SNU1 cells; 72 hours
# Description: as §2
# as §1, with “method. […] The results of the repeated experiments were averaged to generate AUC values for each cell line for each compound.” for “method.”
# OCUM1 = OCUM1 cells; 72 hours
# Description: as §2
# as §1, with “method. […] The results of the repeated experiments were averaged to generate AUC values for each cell line for each compound.” for “method.”
# NCI_N87 = NCI_N87 cells; 72 hours
# Description: as §2
# as §1, with “method. […] The results of the repeated experiments were averaged to generate AUC values for each cell line for each compound.” for “method.”
# SNU668 = SNU668 cells (SEM subtype); 72 hours
# Description: as §2
# as §1, with “method. […] The results of the repeated experiments were averaged to generate AUC values for each cell line for each compound.” for “method.”
# KATO3 = KATO3 cells; 72 hours
# Description: as §2
# as §1, with “method. […] The results of the repeated experiments were averaged to generate AUC values for each cell line for each compound.” for “method.”
# Hs746T = Hs746T cells (SEM subtype); 72 hours
# Description: as §2
# as §1, with “method. […] The results of the repeated experiments were averaged to generate AUC values for each cell line for each compound.” for “method.”
# MKN1 = MKN1 cells; 72 hours
# Description: as §2
# as §1, with “method. […] The results of the repeated experiments were averaged to generate AUC values for each cell line for each compound.” for “method.”
# SNU638 = SNU638 cells; 72 hours
# Description: as §2
# as §1, with “method. […] The results of the repeated experiments were averaged to generate AUC values for each cell line for each compound.” for “method.”
# MKN74 = MKN74 cells; 72 hours
# Description: as §2
# as §1, with “method. […] The results of the repeated experiments were averaged to generate AUC values for each cell line for each compound.” for “method.”
# SNU719 = SNU719 cells; 72 hours
# Description: as §2
# as §1, with “method. […] The results of the repeated experiments were averaged to generate AUC values for each cell line for each compound.” for “method.”
# AGS = AGS cells (non-SEM subtype); 72 hours
# Description: as §2
# as §1, with “method. […] The results of the repeated experiments were averaged to generate AUC values for each cell line for each compound.” for “method.”
# SNU601 = SNU601 cells; 72 hours
# Description: as §2
# as §1, with “method. […] The results of the repeated experiments were averaged to generate AUC values for each cell line for each compound.” for “method.”
# YCC3 = YCC3 cells; 72 hours
# Description: as §2
# as §1, with “method. […] The results of the repeated experiments were averaged to generate AUC values for each cell line for each compound.” for “method.”
# YCC11 = YCC11 cells (SEM subtype); 72 hours
# Description: as §2
# as §1, with “method. […] The results of the repeated experiments were averaged to generate AUC values for each cell line for each compound.” for “method.”
# MKN45 = MKN45 cells (non-SEM subtype); 72 hours
# Description: as §2
# as §1, with “method. […] The results of the repeated experiments were averaged to generate AUC values for each cell line for each compound.” for “method.”
Structure (SMILES),"Average Area Under the Viability Curve (AUC), AUC norm value (FU97)","Average Area Under the Viability Curve (AUC), AUC norm value (SNU620)","Average Area Under the Viability Curve (AUC), AUC norm value (NCC20)","Average Area Under the Viability Curve (AUC), AUC norm value (MKN28)","Average Area Under the Viability Curve (AUC), AUC norm value (SNU16)","Average Area Under the Viability Curve (AUC), AUC norm value (NCC24)","Average Area Under the Viability Curve (AUC), AUC norm value (SNU484)","Average Area Under the Viability Curve (AUC), AUC norm value (SNU216)","Average Area Under the Viability Curve (AUC), AUC norm value (YCC2)","Average Area Under the Viability Curve (AUC), AUC norm value (SNU1967)","Average Area Under the Viability Curve (AUC), AUC norm value (NCC59)","Average Area Under the Viability Curve (AUC), AUC norm value (NCC19)","Average Area Under the Viability Curve (AUC), AUC norm value (SK4)","Average Area Under the Viability Curve (AUC), AUC norm value (SNU1750)","Average Area Under the Viability Curve (AUC), AUC norm value (SNU1)","Average Area Under the Viability Curve (AUC), AUC norm value (OCUM1)","Average Area Under the Viability Curve (AUC), AUC norm value (NCI_N87)","Average Area Under the Viability Curve (AUC), AUC norm value (SNU668)","Average Area Under the Viability Curve (AUC), AUC norm value (KATO3)","Average Area Under the Viability Curve (AUC), AUC norm value (Hs746T)",further results
"Cc1ccc(S(=O)(=O)/C=C/C#N)cc1 [BAY 11-7082 (BAY 11-7821), BAY 11-7082]",0.0931,−0.1923,−0.8287,−0.1987,−0.6715,0.8357,−0.4504,0.3865,0,−0.8028,1.031,−0.07527,−0.7659,−1.012,1.33,0.7491,0.5073,0.8081,0.7229,−0.5796,"Average Area Under the Viability Curve (AUC), AUC norm value (MKN1): −0.3248; Average Area Under the Viability Curve (AUC), AUC norm value (SNU638): −1.497; Average Area Under the Viability Curve (AUC), AUC norm value (MKN74): 0.03633; Average Area Under the Viability Curve (AUC), AUC norm value (SNU719): 1.377; Average Area Under the Viability Curve (AUC), AUC norm value (AGS): −0.5085; Average Area Under the Viability Curve (AUC), AUC norm value (SNU601): 0.7218; Average Area Under the Viability Curve (AUC), AUC norm value (YCC3): 0.7116; Average Area Under the Viability Curve (AUC), AUC norm value (YCC11): −1.538; Average Area Under the Viability Curve (AUC), AUC norm value (MKN45): 0.194"
"CC[C@@H]1C(=O)N(C)c2cnc(Nc3ccc(C(=O)N[C@H]4CC[C@H](N5CCN(CC6CC6)CC5)CC4)cc3OC)nc2N1C(C)C [BI6727 (Volasertib), Volasertib]",0.3078,−0.4098,0.5594,−1.335,0,−0.9502,−0.03282,1.868,−0.09826,−0.1645,3.198,3.256,−0.9263,−0.5962,−0.487,2.405,−0.3929,0.1516,3.3921,2.378,"Average Area Under the Viability Curve (AUC), AUC norm value (MKN1): −0.162; Average Area Under the Viability Curve (AUC), AUC norm value (SNU638): 0.3626; Average Area Under the Viability Curve (AUC), AUC norm value (MKN74): −0.01134; Average Area Under the Viability Curve (AUC), AUC norm value (SNU719): 3.74; Average Area Under the Viability Curve (AUC), AUC norm value (AGS): −1.0975; Average Area Under the Viability Curve (AUC), AUC norm value (SNU601): 0.4757; Average Area Under the Viability Curve (AUC), AUC norm value (YCC3): 3.488; Average Area Under the Viability Curve (AUC), AUC norm value (YCC11): −0.7997; Average Area Under the Viability Curve (AUC), AUC norm value (MKN45): 0.5875"
